According to publication PMC8261488, “Contraceptive progestins with androgenic properties stimulate breast epithelial cell proliferation” (EMBO Molecular Medicine, 2021):
Values joined by “and” are separate entries in the source; they are usually repeats but may differ in a detail not shown here. Identical values can stand only once.

Assays:
KLK3 = KLK3 mRNA in xenografted HBECs by RT-PCR with human-specific primers; format: in vivo; settings: 21 days pellets (Fig 5M)
Description: Consistent with AR and PR sharing a common hormone response element (Claessens et al, 1996), KLK3 was induced upon progestin stimulation. […] This is in agreement with previous findings that KLK3 expression is under the control of both androgens and progestins in T47D cells (Zarghami et al, 1997).
(§1) Next, we sought for a readout of in vivo cell proliferation different from radiance. […] Given that MKI67 expression could replace the luciferase measurements as a readout, we used a modified experimental setup for a second round of experiments. We derived HBECs from viably frozen mammoplasty samples (Appendix Table S3) and engrafted them to different mammary glands of NSG females without viral infection. Four months later, the 24 recipient females, each engrafted with 5 different mammoplasties received pellets containing either vehicle, progesterone, or 1 of 6 progestins for 21 days. At sacrifice, xenografted glands were histologically sectioned and cell proliferation was quantified using co‐IF with anti‐MKI67 and anti‐hECAD antibodies. For one of the mammoplasties, we were able to obtain measurements for all experimental conditions (Fig 5I). […] For the remaining mammoplasties, between 3 and 8 different experimental conditions were successfully quantified (Appendix Table S4). […] CPA (P < 0.0001) decreased proliferation, whereas CMA and DSP had no effect (Fig 5K). As AR signaling increases AR protein levels, we performed co‐IF for AR and hECAD as another means to assess AR signaling activity.
(§2) Human breast microstructures and mouse organoids were homogenized in Trizol (Invitrogen). Aqueous phase containing RNA was chloroform extracted and processed with miRNeasy extraction kit (Qiagen). cDNA was synthesized using random p(dN)6 primers (Roche) and MMLV reverse transcriptase (Invitrogen). SYBR Green PCR Core Reagent System (Qiagen) was used for semi‐quantitative real time (RT‐PCR) using the following primers.

HBECs [1] = assay: In vivo growth of intraductal HBEC xenografts measured by radiance; settings: 60 days of treatment, subcutaneous pellets
Description: To compare the effects of progesterone and different progestins on HBECs in vivo, we infected single cell suspensions obtained from fresh reduction mammoplasty specimens with GFP‐luciferase2‐expressing lentiviruses. The infected cell mixture was grafted intraductally to up to 5 glands of as many recipients as possible. The engraftment and growth of the xenografted cells were monitored weekly by in vivo imaging. When radiance reached > 10E07 on average per mammary gland, 60‐day‐release pellets were implanted subcutaneously, usually within 3–10 weeks after cell injection. At sacrifice, blood was collected and plasma levels of the administered compounds as well as endogenous steroid hormones were determined by liquid chromatography‐mass spectrometry (LC‐MS) (Laszlo et al, 2019).
Next, the in vivo growth of HBEC xenografts stimulated with progesterone or different progestins was analyzed. […] In addition, the fold change radiance of treated versus untreated samples at endpoint was calculated (Fig 5A–C).
(§7) Mice were anesthetized by intraperitoneal injection with 10 mg/kg xylazine and 90 mg/kg ketamine (Graeub) and injected intraductally with 10 μl cell suspension per gland. Bioluminescence imaging was performed as described (Sflomos et al, 2016). After 3–10 weeks, when bioluminescence from individual glands reached 10^7 total flux (p/s/cm2/sr), animals were assigned to different treatment groups and hormone pellets implanted subcutaneously. Enzalutamide (Selleckchem, Catalog No. S1250) dissolved in 15% DMSO in PEG300 was injected intraperitoneally 3 times/week at 30 mg/kg.
Pellets were prepared by mixing the required amount of part A, MP3745/E81949 and part B, MP3744/E81950 of low consistency silicon elastomer (MED‐4011) and hormone powder to homogeneity. Mix was transferred to a syringe and incubated at 37°C overnight. The silicon‐hormone mass was removed from the syringe and cut to pieces, as described (Duss et al, 2007). The original protocol was adapted for different doses as described below.

[2] = system: endogenous hormone levels in mice; assay: Endogenous steroid hormone plasma levels in treated host mice by LC-MS; format: in vivo, mouse; settings: xenografted NSG females with pellets
Description: Next, we assessed whether progesterone and progestins differentially affected endogenous hormone levels in mice. Plasma 17‐β‐estradiol levels were not affected by any of the treatments (Fig 4H). […] Plasma testosterone levels were not altered by any treatment with the exception of DSP, which decreased them (Fig 4H). Thus, prolonged exposures to progestins differentially affect endogenous progesterone plasma levels and DSP decreases testosterone plasma levels in host mice.

Rankl [3] = assay: Rankl transcript levels by RT-PCR in mouse mammary organoids stimulated ex vivo; format: cell-based; settings: for Rankl transcript levels over vehicle-treated control: BalbC females, 6 h of stimulation
Method: (§3) Next, we stimulated mouse mammary organoids derived from several BalbC females with R5020 or different progestins (Fig 1A). […] No significant change in Rankl and Wnt4 transcript levels was detected during the first 2 h (Appendix Fig S1D). By 6 h of R5020 stimulation, Rankl and Wnt4 transcript levels increased 22.4 and 5.8‐fold over the vehicle‐treated control, respectively.
(§4) Animal experiments were performed in accordance with protocol approved by the Service de la Consommation et des Affaires vétérinaires of Canton de Vaud (VD 1865.3, VD 1865.4). NOD. Cg‐Prkdc^scid Il2rg^tm1Wjl/SzJ mice (Charles River), BalbC, and C57Bl6 breeders were purchased from Jackson Laboratories. Mammary glands were isolated from 18‐ to 35‐week‐old mice, lymph nodes removed, minced with surgical blades, and digested in DMEM/F12, 1% penicillin/streptomycin B with collagenase A 0.25 mg/ml (Roche). […] Fat was removed, and pellet containing organoids washed with phosphate‐buffered saline (PBS), resuspended 5 min in 3 ml red cell blood lysis buffer and washed twice with PBS.
as §2

HBECs [4] = assay: MKI67/Ki67 expression in xenografted HBECs; format: in vivo, human; settings: 21 days pellets; for cell proliferation (KI67 and hECAD double+ cells), overall analysis: HBECs from 11 different patients; for cell proliferation (KI67 and hECAD double+ cells): one mammoplasty (M310)
Description: as §1
Tissues were fixed for 2 h at room temperature in 4% paraformaldehyde and paraffin‐embedded. Dewaxed and rehydrated paraffin sections were pretreated in 10 mM Na citrate (pH 6.0) at 95° for 20 min. Blocking was performed with 1% BSA for 60 min. Primary antibodies used were as follows: Ki67 (rabbit α‐Ki67, clone Sp6, Spring Amsbio, dilution 1:200), ER (rabbit α‐ER, clone Sp1, Zytomed RTU), PR (rabbit α‐PR, clone 1E2, Ventana RTU), AR (rabbit α‐AR, clone SP107, Thermo Fisher, diluted 1:200), CK7 (rabbit α‐CK7, clone Sp52, Abcam, diluted 1:500), CK19 (mouse KS19.2 (Z105.6), American Research Products Inc. (diluted 1:50), and mouse α‐ECAD (clone G‐10, sc‐8426, diluted 1:100). For IHC, chromogenic revelation was performed with ChromoMap DAB kit (Roche Diagnostics, Switzerland) and sections were counterstained with Mayer’s hematoxylin. For fluorescence microscopy, nuclei were counterstained with DAPI (Sigma). IHC for ER, PR, and AR was performed on Discovery Ventana ULTRA (44). IHC images were acquired on Leica DM 2000 with Leica DFC450 C camera. IF images were acquired on Zeiss LSM700 confocal microscope. Slides were scanned with Olympus VS120‐L100 slide scanner with 20×/0.75 objective and Pike F505 C Color camera. Images were loaded into QuPath using the BioFormats extension (Bankhead et al, 2017).

Wnt4 [5] = assay: Wnt4 transcript levels by RT-PCR in mouse mammary organoids stimulated ex vivo; format: cell-based; settings: for Wnt4 transcript levels over vehicle-treated control: BalbC females, 6 h of stimulation
Method: as §3, §4, §2

AR = system: AR; parameters: method as in earlier work; settings: various assays, ref Fuhrmann et al, 1995, Muhn et al, Bouchard, 2005, Mishell, 2008, Schneider et al, 2009, Africander et al, 2011, Louw‐du Toit et al, 2017; cited from earlier work
human breast epithelium = settings: female, mouse, in vivo, 8 months
Method: All the engrafted glands were processed for histological analysis and H&E stained.
as §7

Rankl [6] = assay: Rankl induction by R5020 or LNG in mouse mammary organoids co-treated with AR antagonists; format: cell-based; settings: 6 h
Method: (§5) Enzalutamide (100 µM) abrogated Rankl induction by R5020 (P < 0.05) but had no effect on Wnt4 induction (Fig 1H).
(§6) Animal experiments were performed in accordance with protocol approved by the Service de la Consommation et des Affaires vétérinaires of Canton de Vaud (VD 1865.3, VD 1865.4). NOD. Cg‐Prkdc^scid Il2rg^tm1Wjl/SzJ mice (Charles River), BalbC, and C57Bl6 breeders were purchased from Jackson Laboratories. Mammary glands were isolated from 18‐ to 35‐week‐old mice, lymph nodes removed, minced with surgical blades, and digested in DMEM/F12, 1% penicillin/streptomycin B with collagenase A 0.25 mg/ml (Roche). Tissue was concomitantly stimulated with hormones for 1, 2, or 6 h and centrifuged at 652 g for 5 min. Fat was removed, and pellet containing organoids washed with phosphate‐buffered saline (PBS), resuspended 5 min in 3 ml red cell blood lysis buffer and washed twice with PBS.
as §2

HBECs [7] = assay: In vivo growth of HBEC xenografts treated with LNG with or without enzalutamide; parameters: species or system human; settings: enzalutamide 30 mg/kg intraperitoneally 3 times/week, the 2 LNG-responsive PDXs
Method: Mice were anesthetized by intraperitoneal injection with 10 mg/kg xylazine and 90 mg/kg ketamine (Graeub) and injected intraductally with 10 μl cell suspension per gland. […] After 3–10 weeks, when bioluminescence from individual glands reached 10^7 total flux (p/s/cm2/sr), animals were assigned to different treatment groups and hormone pellets implanted subcutaneously. Enzalutamide (Selleckchem, Catalog No. S1250) dissolved in 15% DMSO in PEG300 was injected intraperitoneally 3 times/week at 30 mg/kg.

Wnt4 [8] = assay: Wnt4 induction by R5020 or LNG in mouse mammary organoids co-treated with AR antagonists; format: cell-based; settings: antagonist 100 µM, 6 h, C57Bl6-derived organoids
Method: as §5, §6, §2

[9] = BalbC-derived organoids, 24 h of stimulation
[10] = antagonist 100 µM, C57Bl6-derived organoids

Row | Compound | KLK3 transcripts levels (KLK3) | growth (course of radiance) of engrafted HBECs versus control (HBECs [1]) | relative radiance at endpoint over control (FC) (HBECs [1]) | endogenous progesterone plasma levels (estrous cycle-related variation) [2] | Rankl transcript levels over vehicle-treated control (Rankl [3]) [fold] | Rankl transcript induction (Rankl [3]; [9]) [fold] | Rankl transcript induction (Rankl [3]; C57Bl/6 mice, 6 h, 20 nM) [fold] | cell proliferation (KI67 and hECAD double+ cells), overall analysis (HBECs [4]) | cell proliferation (KI67 and hECAD double+ cells) (HBECs [4]) | Wnt4 transcript levels over vehicle-treated control (Wnt4 [5]) [fold] | Wnt4 transcript induction (Wnt4 [5]; [9]) [fold] | Wnt4 transcript induction (Wnt4 [5]; C57Bl/6 mice, 6 h, 20 nM) [fold] | androgenic / anti-androgenic activity (AR) | morphologic changes in xenografts (H&E) (human breast epithelium) | effect of AR antagonist on Rankl induction (Rankl [6]; antagonist 10 µM, n = 3) | effect of AR antagonist on Rankl induction by LNG (Rankl [6]; [10]) | effect of AR antagonist on Rankl induction by R5020 (Rankl [6]; [10]) | effect of enzalutamide on LNG-induced proliferation (HBECs [7]) | effect of AR antagonist on Wnt4 induction by LNG (Wnt4 [8]) | effect of AR antagonist on Wnt4 induction by R5020 (Wnt4 [8])
1 | C#C[C@]1(O)CC[C@H]2[C@@H]3CCC4=CC(=O)CC[C@@H]4[C@H]3C(=C)C[C@@]21CC [DSG, 3‐ketodesogestrel] | increased | increased growth | 2 fold and 2.0 fold | suppressed | 22.3 | 177.2 | 15.5 | increased | significantly increased | 8.5 | 32.2 | 4.2 | androgenic activity | 3 or 4 grafts showed diffuse and in some cases marked acinar proliferation |  |  |  |  |  | 
2 | C#C[C@]1(O)C=C[C@H]2[C@@H]3CCC4=CC(=O)CC[C@@H]4[C@H]3CC[C@@]21CC [GSN, gestodene] | increased | increased growth | 2.2 fold | suppressed | 18.2 | 617.2 | 21.5 | increased | significantly increased | 4.9 | 33.5 | 3.6 | androgenic activity | 3 or 4 grafts showed diffuse and in some cases marked acinar proliferation |  |  |  |  |  | 
3 | CNC(=O)c1ccc(N2C(=S)N(c3ccc(C#N)c(C(F)(F)F)c3)C(=O)C2(C)C)cc1F [enzalutamide] |  |  |  |  |  |  |  |  |  |  |  |  |  |  | failed to reach significance | significantly reduced | abrogated | decreased the proliferative effects of LNG | not affected | no effect
